Laboratory results as given in patent US20060115571A1, “Functional foods/drinks containing antiallergic component” (priority 2002, published 2006).

Test: stability during the process of preparing the hard candy
Settings: powder of an extract of "Benifuki" made into hard candy
Description: Using a powder of an extract of “Benifuki”, a hard candy was prepared. Methylcatechin was contained at 2.7% in the powder of the extract, so one hard candy was designed to contain 3 mg of methylcatechin.

Structure (SMILES): O=C1C[C@@H]2OCC=C3CN4CC[C@]56c7ccccc7N1[C@H]5[C@H]2[C@H]3C[C@H]46 [Strychnine, strychnine]
- stability during the process of preparing the hard candy: stable
